Results taken from ChEMBL document CHEMBL1133669 (J Med Chem, 2000).

Target: Carbonic anhydrase 1 (Homo sapiens, UniProt P00915)
Sequence (P00915 whole entry): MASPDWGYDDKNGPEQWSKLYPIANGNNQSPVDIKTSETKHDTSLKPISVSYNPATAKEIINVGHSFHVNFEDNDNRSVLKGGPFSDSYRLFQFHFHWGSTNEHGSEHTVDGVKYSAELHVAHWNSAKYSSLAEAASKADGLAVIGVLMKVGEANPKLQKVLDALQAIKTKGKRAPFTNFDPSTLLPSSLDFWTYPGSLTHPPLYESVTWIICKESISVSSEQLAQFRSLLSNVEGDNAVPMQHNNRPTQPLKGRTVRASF
Description: Inhibitory activity against human carbonic anhydrase I (CA1)

Row | Compound | Ki [nM]
1 | CC(C)c1cc(-c2ccccc2)cc(C(C)C)[n+]1CC(=O)Nc1nccc(Nc2ccc(S(N)(=O)=O)cc2)n1 | 47
2 | CC(C)c1cc(-c2ccccc2)cc(C(C)C)[n+]1CC(=O)Nc1ccc(S(N)(=O)=O)cc1Cl | 600
3 | Cc1cc(-c2ccccc2)cc(C)[n+]1CC(=O)Nc1cccc(S(N)(=O)=O)c1 | 19600
4 | CCc1cc(-c2ccccc2)cc(CC)[n+]1CC(=O)Nc1c(S(N)(=O)=O)cc(S(N)(=O)=O)c(Cl)c1Cl | 400
5 | Cc1cc(-c2ccccc2)cc(C)[n+]1CC(=O)Nc1cc(C(F)(F)F)c(S(N)(=O)=O)cc1S(N)(=O)=O | 300
6 | CC(C)c1cc(-c2ccccc2)cc(C(C)C)[n+]1CC(=O)Nc1ccc(S(N)(=O)=O)cc1 | 15000
7 | Cc1cc(-c2ccccc2)cc(C)[n+]1CC(=O)Nc1cc(Cl)c(S(N)(=O)=O)cc1S(N)(=O)=O | 350
8 | Cc1cc(C)[n+](CC(=O)Nc2ccc(S(N)(=O)=O)cc2Br)c(C)c1 | 800
9 | Cc1cc(-c2ccccc2)cc(C)[n+]1CC(=O)Nc1ccc(S(=O)(=O)Nc2ccc(S(N)(=O)=O)cc2)cc1 | 41
10 | CCc1cc(-c2ccccc2)cc(CC)[n+]1CC(=O)Nc1ccc(S(=O)(=O)Nc2cccc(S(N)(=O)=O)c2)cc1 | 43
11 | CC(C)c1cc(-c2ccccc2)cc(C(C)C)[n+]1CC(=O)NCCc1ccc(S(N)(=O)=O)cc1 | 775
12 | Cc1cc(C)[n+](CC(=O)Nc2cc(C(F)(F)F)c(S(N)(=O)=O)cc2S(N)(=O)=O)c(C)c1 | 320
13 | Cc1cc(-c2ccccc2)cc(C)[n+]1CC(=O)NCCc1ccc(S(N)(=O)=O)cc1 | 720
14 | CCc1cc(-c2ccccc2)cc(CC)[n+]1CC(=O)Nc1ccc(S(N)(=O)=O)cc1I | 620
15 | Cc1cc(-c2ccccc2)cc(C)[n+]1CC(=O)Nc1ccc2nc(S(N)(=O)=O)sc2c1 | 10
16 | Cc1cc(C)[n+](CC(=O)OCc2ccc(S(N)(=O)=O)cc2)c(C)c1 | 1800
17 | Cc1cc(C)[n+](CC(=O)Oc2ccc3nc(S(N)(=O)=O)sc3c2)c(C)c1 | 13
18 | CC(C)c1cc(-c2ccccc2)cc(C(C)C)[n+]1CC(=O)Nc1ccc(S(=O)(=O)/N=c2/sc(S(N)(=O)=O)nn2C)cc1 | 15
19 | CC(C)c1cc(-c2ccccc2)cc(C(C)C)[n+]1CC(=O)Nc1ccc(S(=O)(=O)Nc2ccc(S(N)(=O)=O)cc2)cc1 | 50
20 | Cc1cc(C)[n+](CC(=O)NCCC(=O)Nc2nnc(S(N)(=O)=O)s2)c(C)c1 | 43
21 | Cc1cc(C)[n+](CC(=O)Nc2cccc(S(N)(=O)=O)c2)c(C)c1 | 24000

Continued by falling Ki, values first:

Row | Ki [nM] | Compound
22 | 28000 | CCc1cc(-c2ccccc2)cc(CC)[n+]1CC(=O)NNc1ccc(S(N)(=O)=O)cc1
23 | 26000 | Cc1cc(-c2ccccc2)cc(C)[n+]1CC(=O)NNc1ccc(S(N)(=O)=O)cc1
24 | 750 | Cc1cc(C)[n+](CC(=O)Nc2ccc(S(N)(=O)=O)cc2F)c(C)c1
25 | 645 | CC(C)c1cc(-c2ccccc2)cc(C(C)C)[n+]1CC(=O)Nc1ccc(S(N)(=O)=O)cc1Br
26 | 610 | Cc1cc(-c2ccccc2)cc(C)[n+]1CC(=O)Nc1ccc(S(N)(=O)=O)cc1I
27 | 600 | Cc1cc(-c2ccccc2)cc(C)[n+]1CC(=O)Nc1ccc(S(N)(=O)=O)cc1Cl
28 | 470 | CC(C)c1cc(-c2ccccc2)cc(C(C)C)[n+]1CC(=O)Nc1c(S(N)(=O)=O)cc(S(N)(=O)=O)c(Cl)c1Cl
29 | 360 | Cc1cc(C)[n+](CC(=O)Nc2cc(Cl)c(S(N)(=O)=O)cc2S(N)(=O)=O)c(C)c1
30 | 350 | CCc1cc(-c2ccccc2)cc(CC)[n+]1CC(=O)Nc1cc(Cl)c(S(N)(=O)=O)cc1S(N)(=O)=O
31 | 300 | CCc1cc(-c2ccccc2)cc(CC)[n+]1CC(=O)Nc1nnc(S(N)(=O)=O)s1
32 | 300 | CCc1cc(-c2ccccc2)cc(CC)[n+]1CC(=O)/N=c1/sc(S(N)(=O)=O)nn1C
33 | 200 | Cc1cc(-c2ccccc2)cc(C)[n+]1CC(=O)/N=c1/sc(S(N)(=O)=O)nn1C
34 | 53 | CC(C)c1cc(-c2ccccc2)cc(C(C)C)[n+]1CC(=O)Nc1ccc(S(=O)(=O)Nc2cccc(S(N)(=O)=O)c2)cc1
35 | 38 | Cc1cc(-c2ccccc2)cc(C)[n+]1CC(=O)Nc1ccc(S(=O)(=O)Nc2cccc(S(N)(=O)=O)c2)cc1

Target: T1, Carbonic anhydrase 4 (Bos taurus, UniProt Q95323)
T1 sequence (Q95323 whole entry): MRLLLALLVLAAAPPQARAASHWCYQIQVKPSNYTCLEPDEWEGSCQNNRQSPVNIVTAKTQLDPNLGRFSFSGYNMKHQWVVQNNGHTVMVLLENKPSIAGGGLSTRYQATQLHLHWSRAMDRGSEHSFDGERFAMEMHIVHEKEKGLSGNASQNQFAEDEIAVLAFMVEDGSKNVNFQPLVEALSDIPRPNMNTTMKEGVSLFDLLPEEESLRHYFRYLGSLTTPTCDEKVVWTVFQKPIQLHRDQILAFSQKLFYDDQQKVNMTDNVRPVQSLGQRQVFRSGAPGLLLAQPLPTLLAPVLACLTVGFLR
Description: Inhibitory activity against bovine carbonic anhydrase IV (CA4), isolated from bovine lung microsomes

Row | Compound | Ki [nM]
36 | CC(C)c1cc(-c2ccccc2)cc(C(C)C)[n+]1CC(=O)Nc1nccc(Nc2ccc(S(N)(=O)=O)cc2)n1 | 62
37 | CC(C)c1cc(-c2ccccc2)cc(C(C)C)[n+]1CC(=O)Nc1ccc(S(N)(=O)=O)cc1Cl | 56
38 | Cc1cc(-c2ccccc2)cc(C)[n+]1CC(=O)Nc1cccc(S(N)(=O)=O)c1 | 280
39 | CCc1cc(-c2ccccc2)cc(CC)[n+]1CC(=O)Nc1c(S(N)(=O)=O)cc(S(N)(=O)=O)c(Cl)c1Cl | 35
40 | Cc1cc(-c2ccccc2)cc(C)[n+]1CC(=O)Nc1cc(C(F)(F)F)c(S(N)(=O)=O)cc1S(N)(=O)=O | 33
41 | CC(C)c1cc(-c2ccccc2)cc(C(C)C)[n+]1CC(=O)Nc1ccc(S(N)(=O)=O)cc1 | 180
42 | Cc1cc(-c2ccccc2)cc(C)[n+]1CC(=O)Nc1cc(Cl)c(S(N)(=O)=O)cc1S(N)(=O)=O | 30
43 | Cc1cc(C)[n+](CC(=O)Nc2ccc(S(N)(=O)=O)cc2Br)c(C)c1 | 77
44 | Cc1cc(-c2ccccc2)cc(C)[n+]1CC(=O)Nc1ccc(S(=O)(=O)Nc2ccc(S(N)(=O)=O)cc2)cc1 | 54
45 | CCc1cc(-c2ccccc2)cc(CC)[n+]1CC(=O)Nc1ccc(S(=O)(=O)Nc2cccc(S(N)(=O)=O)c2)cc1 | 60
46 | CC(C)c1cc(-c2ccccc2)cc(C(C)C)[n+]1CC(=O)NCCc1ccc(S(N)(=O)=O)cc1 | 70
47 | Cc1cc(C)[n+](CC(=O)Nc2cc(C(F)(F)F)c(S(N)(=O)=O)cc2S(N)(=O)=O)c(C)c1 | 58
48 | Cc1cc(-c2ccccc2)cc(C)[n+]1CC(=O)NCCc1ccc(S(N)(=O)=O)cc1 | 46
49 | CCc1cc(-c2ccccc2)cc(CC)[n+]1CC(=O)Nc1ccc(S(N)(=O)=O)cc1I | 64
50 | Cc1cc(-c2ccccc2)cc(C)[n+]1CC(=O)Nc1ccc2nc(S(N)(=O)=O)sc2c1 | 19
51 | Cc1cc(C)[n+](CC(=O)OCc2ccc(S(N)(=O)=O)cc2)c(C)c1 | 140
52 | Cc1cc(C)[n+](CC(=O)Oc2ccc3nc(S(N)(=O)=O)sc3c2)c(C)c1 | 29
53 | CC(C)c1cc(-c2ccccc2)cc(C(C)C)[n+]1CC(=O)Nc1ccc(S(=O)(=O)/N=c2/sc(S(N)(=O)=O)nn2C)cc1 | 10
54 | CC(C)c1cc(-c2ccccc2)cc(C(C)C)[n+]1CC(=O)Nc1ccc(S(=O)(=O)Nc2ccc(S(N)(=O)=O)cc2)cc1 | 73
55 | Cc1cc(C)[n+](CC(=O)NCCC(=O)Nc2nnc(S(N)(=O)=O)s2)c(C)c1 | 18
56 | Cc1cc(C)[n+](CC(=O)Nc2cccc(S(N)(=O)=O)c2)c(C)c1 | 410

Continued, values first:

Row | Ki [nM] | Compound
57 | 340 | CCc1cc(-c2ccccc2)cc(CC)[n+]1CC(=O)NNc1ccc(S(N)(=O)=O)cc1
58 | 310 | Cc1cc(-c2ccccc2)cc(C)[n+]1CC(=O)NNc1ccc(S(N)(=O)=O)cc1
59 | 44 | Cc1cc(C)[n+](CC(=O)Nc2ccc(S(N)(=O)=O)cc2F)c(C)c1
60 | 70 | CC(C)c1cc(-c2ccccc2)cc(C(C)C)[n+]1CC(=O)Nc1ccc(S(N)(=O)=O)cc1Br
61 | 59 | Cc1cc(-c2ccccc2)cc(C)[n+]1CC(=O)Nc1ccc(S(N)(=O)=O)cc1I
62 | 38 | Cc1cc(-c2ccccc2)cc(C)[n+]1CC(=O)Nc1ccc(S(N)(=O)=O)cc1Cl
63 | 49 | CC(C)c1cc(-c2ccccc2)cc(C(C)C)[n+]1CC(=O)Nc1c(S(N)(=O)=O)cc(S(N)(=O)=O)c(Cl)c1Cl
64 | 64 | Cc1cc(C)[n+](CC(=O)Nc2cc(Cl)c(S(N)(=O)=O)cc2S(N)(=O)=O)c(C)c1
65 | 36 | CCc1cc(-c2ccccc2)cc(CC)[n+]1CC(=O)Nc1cc(Cl)c(S(N)(=O)=O)cc1S(N)(=O)=O
66 | 25 | CCc1cc(-c2ccccc2)cc(CC)[n+]1CC(=O)Nc1nnc(S(N)(=O)=O)s1
67 | 25 | CCc1cc(-c2ccccc2)cc(CC)[n+]1CC(=O)/N=c1/sc(S(N)(=O)=O)nn1C
68 | 16 | Cc1cc(-c2ccccc2)cc(C)[n+]1CC(=O)/N=c1/sc(S(N)(=O)=O)nn1C
69 | 72 | CC(C)c1cc(-c2ccccc2)cc(C(C)C)[n+]1CC(=O)Nc1ccc(S(=O)(=O)Nc2cccc(S(N)(=O)=O)c2)cc1
70 | 55 | Cc1cc(-c2ccccc2)cc(C)[n+]1CC(=O)Nc1ccc(S(=O)(=O)Nc2cccc(S(N)(=O)=O)c2)cc1
